Assay results: US20050277586A1, “Peptide chemically modified with polyethylene glycol” (priority 2002, published 2005)

Assays:
21mer oligonucleotide = test: Binding ability to oligonucleotide (gel electrophoresis); details: charge ratio (±ratio) of 10
Method: The 21mer oligonucleotide prepared by the procedure described in Example 6 (final concentration, 6.7 μM) and the peptide prepared by the procedure described in Examples 1 to 3 were mixed in 20 mM Tris-HCl buffer (pH=7.2) containing 150 mM NaCl at a charge ratio (±ratio) of 0 to 10, and the mixture was allowed to stand at 37° C. for 30 minutes. Next, 7.5 μL of this solution was mixed with an equal amount of Tris-borate buffer (pH=8.2) containing 80% formamide, and electrophoresis was conducted on 25% polyacrylamide gel containing 7M urea. After the electrophoresis, the gel was stained with 5% aqueous solution of Stains all (manufactured by Funakoshi) containing 50% formamide and washed with water to thereby determine the binding of the oligonucleotide and the peptide.
The ±ratio (charge ratio) indicated in FIG. 10 is the ratio of the number (+) of the positively-charged groups in the peptide to the number (−) of negatively-charged groups in the nucleic acid. As evident in FIG. 10, the amount of oligonucleotide that became bound to the peptide increased with the increase in the charge ratio (±ratio), and the oligonucleotide was fully bound to the peptide at a charge ratio (±ratio) of 10. The peptides of SEQ ID NO: 2 to SEQ ID NO: 24 were also found to bind at a charge ratio (±ratio) of 10.

[1] = Measurement of CD spectrum with and without SDS; assay type: physicochemical; details: 10 mM phosphate buffer pH 7, 50 mM NaCl, 35° C.
Method: The peptide dissolved in 10 mM phosphate buffer (pH=7) containing 50 mM NaCl was evaluated for its CD spectrum in the presence and in the absence of 5 mM SDS by using a circular dichroism spectrophotometer (J-500A, manufactured by JASCO). The cell length was 1 mm. The measurement was conducted at 35° C. for 6 times in total.

Vero cell = test: Accumulation of FITC-labeled oligonucleotide in cell nucleus; assay type: cell-based, monkey; details: 300 nM FITC-labeled oligonucleotide, 2.5 μM peptide
Method: Vero cell was inoculated in the well of a chamber slide (Lab-Tek II chamber slide, size 4 well, manufactured by NALGEN NUNC) at a rate of 1×10^5 cells/well, and the cells were cultivated in DMEM supplemented with 10% FBS in 5% CO2 atmosphere at 37° C. for 24 hours. After removing the medium, opti-MEM containing 300 nM FITC-labeled oligonucleotide prepared in Example 6 and 2.5 μM of the peptide of SEQ ID NO: 1 prepared in Example 1 was added, and the cultivation was continued for 4 hours. The medium was replaced with DMEM supplemented with 10% FBS, and the cultivation was continued in 5% CO2 atmosphere at 37° C. for another 24 hours. After washing the cell with PBS, the cells were fixed by using PBS containing 4% paraformaldehyde, and accumulation of FITC-labeled oligonucleotide in the cell nucleus was confirmed by using a fluorescence microscope (AH-3, manufactured by Olympus). […] On the other hand, accumulation of FITC-labeled oligonucleotide in the cell was not confirmed in the absence of the peptide of SEQ ID NO: 1.

T24 cell = test: Luciferase-expressing plasmid introduction into T24 cell; assay type: cell-based, human
From the text: A cell line established from monkey kidney (Vero cell) and a human bladder cancer cell (T24 cell) purchased from American Type Culture Collection (ATCC) and human lung cancer cell (A549 cell) purchased from Dainippon Pharmaceutical were inoculated on a 24 well culture plate (manufactured by NALGEN NUNC) at 1×10^5 cells/well. Vero cell and A549 cell were cultivated in DMEM (manufactured by Life Technologies Oriental) supplemented with 10% fetal bovine serum (hereinafter referred to as FBS, manufactured by NICHIREI), and T24 cell was cultivated in McCoy's 5a (manufactured by Life Technologies Oriental) supplemented with 10% FBS in 5% CO2 atmosphere at 37° C. for 24 hours. […] The luciferase activity expressed in the cell was then measured by the method instructed in luciferase assay system (manufactured by Promega). […]
20 μL of this cell lysate and 100 μL of the Luciferase Assay Reagent II attached to the kit was added to a fluorescence-measuring plate (Microlite™ 1 plate, manufactured by Dynatech), and after mixing, fluorescence was measured for 1 second by using a multilabel counter (ARVO™ SY1420 MULTILABEL COUNTER, manufactured by Wallac Beltold. […]

- Binding of oligonucleotide to the peptide (21mer oligonucleotide): fully bound
Sequence: TRYLRIHPRSWVHQIALRLRYLRIHPRSWVHQIALRS [SEQ ID NO: 1]
- α-helix structure in CD spectroscopy in the presence of SDS ([1]; 5 mM SDS): are in α-helix structure in the presence of SDS
- α-helix structure in CD spectroscopy in the absence of SDS ([1]; no SDS): do not take α-helix structure in an aqueous solution solely containing an inorganic salt
- Accumulation of FITC-labeled oligonucleotide in the cell nucleus (Vero cell): FITC-labeled oligonucleotide was accumulated in the cell nucleus
- Luciferase activity (T24 cell): 7.8 × 10^3 cps/mg protein
